Laboratory results taken from patent US20170198292A1, “Methods and Compositions for Modulating Lung Cancer Tumor Initiating Cells (TIC), and Oxytocin Receptor (OXTR) Modulatory Agents for Use in Practicing the Same” (The Board of Trustees of the Leland Stanford Junior …, priority 2014, published 2017).

Experiments:
Assay type in all cases: cell-based, human
[1] = test system: tumor spheres derived from primary SQCC cells; test: Sphere-forming assay, primary SQCC cells; details: at 5 μM; three days
Protocol: All gene expression and survival data were obtained from publicly-available resources: NCI TCGA and NCBI GEO. Human lung cancer tissue samples were purchased from US Biomax. Cell imaging was acquired using a confocal laser scanning microscope at the Stanford Fluorescence Microscopy Core. FACS was done at the Stanford FACS core facility. All sphere-forming assays and mouse xenograft model were performed at the Stanford Transgenic, Knockout and Tumor Model Center. qRT-PCR and sequencing was performed at Stanford Protein and Nucleic Acid Facility. • A. Text mining of lung TIC associated literature. PubMed literatures were queried on Apr. 13, 2015, using the search term, (“Neoplastic Stem Cells”[majr] OR “tumor-propagating cells”[All Fields]) AND “lung cancer”[All Fields]. […] Words with a prefix “CD” followed by digits were extracted from the title and abstract of each article. Resulted terms were manually examined. […] The number of unique occurrence of each term is counted in titles and abstracts. […] Meta-analysis of correlations were performed using R package meta, where fixed and random effects estimates were calculated and inverse variance weighting was used for pooling. […] Quantitative IF imaging signal of human lung tissue samples were measured using the Bioquant image analysis software in the Nikon 8000 microscope and Leica DMI 6000B. • E. Flow Cytometry. […]

[2] = test system: tumor spheres of H226 and H520 cells; test: Sphere-forming assay (tumor spheres / TIC growth)
Protocol: All gene expression and survival data were obtained from publicly-available resources: NCI TCGA and NCBI GEO. Human lung cancer tissue samples were purchased from US Biomax. Cell imaging was acquired using a confocal laser scanning microscope at the Stanford Fluorescence Microscopy Core. FACS was done at the Stanford FACS core facility. All sphere-forming assays and mouse xenograft model were performed at the Stanford Transgenic, Knockout and Tumor Model Center. qRT-PCR and sequencing was performed at Stanford Protein and Nucleic Acid Facility. • A. Text mining of lung TIC associated literature. PubMed literatures were queried on Apr. 13, 2015, using the search term, (“Neoplastic Stem Cells”[majr] OR “tumor-propagating cells”[All Fields]) AND “lung cancer”[All Fields]. […] Words with a prefix “CD” followed by digits were extracted from the title and abstract of each article. Resulted terms were manually examined. Immune cell CD markers were excluded from the list. CD marker with positive sign, such as CD133+, was treated as different from CD133 or CD133−. The number of unique occurrence of each term is counted in titles and abstracts. Terms occurred in at least two different articles were selected for ranking by its occurrence frequency. • B. Primary Tumor Cell Preparation. SQCC samples were collected from patients according to protocols approved by the Stanford IRB board. Samples were washed, dissociated, and incubated in DNase and collagenase/dispase. After incubation, cell clusters and red blood cells were removed. The single cells were resuspended and prepared for cell culture and staining. • C. Microarray datasets. The TOGA lung cancer gene expression datasets were downloaded from the TOGA data portal on September 2012. No significant changes in available sample size were found during a recent check. These datasets were selected based on two criteria: explicit pathological diagnosis of SQCC and associated with an actual publication. Pearson or Spearman correlation analysis was used for the association study, depending on whether the distribution of the gene expression data is parametric or non-parametric. Multiple hypothesis testing was corrected using false discovery rates to select associations with a q value less than 0.1. Meta-analysis of correlations were performed using R package meta, where fixed and random effects estimates were calculated and inverse variance weighting was used for pooling. Survival data was extracted from all the datasets whenever they were available. Proportional hazards regression analysis was performed with the gene expression of OXTR and CD133 as covariates. Proportional hazard hypothesis was test based on weighted residuals. • D. Cell Culture and Imaging. H226, H520, HCC827, H522 and NL20 cell lines were purchased from ATCC and cultured in recommended cell medium for bulk cancer cell growth. HCC95 and H157 were from Dr. Sage's laboratory. APC conjugated mouse anti-CD133 Ab (BioLegend 14208), goat anti-OXTR Ab (Life Technologies ab87312) with anti-goat Alexa488 (Life Technologies A11055), rabbit anti-CD44 (Santa Cruz Biotech sc-7946) with anti-rabbit Alexa594 (Life Technologies A21207) and rabbit anti-OXT with anti-rabbit Alexa594 were used to stain CD133, OXTR, CD44 and OXT respectively in human tissue samples and cell lines for immunofluorescence (IF) imaging. Goat F(ab′)2 IgG (Life Technologies 11301C) and isotype control for rabbit primary Ab (Life Technology 08-6199) were used as isotype control of OXTR Ab and CD133 Ab. Quantitative IF imaging signal of human lung tissue samples were measured using the Bioquant image analysis software in the Nikon 8000 microscope and Leica DMI 6000B. • E. Flow Cytometry. Cells were stained with CD133, CD44 or OXTR Ab separately for single channel counting, and stained with CD133 and OXTR Ab for double channel counting and sorting. Cells were also stained for secondary Ab alone for subtraction of non-specific binding. […]

H226 and H520 cells = test: Colony formation; details: statistically significant at 0.5 μM, 5 μM and 10 μM
Text: To determine whether the expression of OXTR is associated with the growth of regular cancer cells and TICs, we treated regular cancer cells and tumor spheres of SQCC cell lines with an OXTR specific inhibitor (Manning et al.,“Oxytocin and vasopressin agonists and antagonists as research tools and potential therapeutics,” Journal of neuroendocrinology (2012) 24: 609-628), L-368,899 (L3) to suppress its activity, or its natural ligand oxytocin (OXT) to induce its activity.

[3] = test system: regular H226 and H520 cells; test: Proliferation of regular cancer cells; details: for cell proliferation of regular H226 and H520 cells: 3-day treatment
Protocol: All gene expression and survival data were obtained from publicly-available resources: NCI TCGA and NCBI GEO. Human lung cancer tissue samples were purchased from US Biomax. Cell imaging was acquired using a confocal laser scanning microscope at the Stanford Fluorescence Microscopy Core. FACS was done at the Stanford FACS core facility. All sphere-forming assays and mouse xenograft model were performed at the Stanford Transgenic, Knockout and Tumor Model Center. qRT-PCR and sequencing was performed at Stanford Protein and Nucleic Acid Facility. • A. Text mining of lung TIC associated literature. PubMed literatures were queried on Apr. 13, 2015, using the search term, (“Neoplastic Stem Cells”[majr] OR “tumor-propagating cells”[All Fields]) AND “lung cancer”[All Fields]. […] Words with a prefix “CD” followed by digits were extracted from the title and abstract of each article. Resulted terms were manually examined. Immune cell CD markers were excluded from the list. CD marker with positive sign, such as CD133+, was treated as different from CD133 or CD133−. The number of unique occurrence of each term is counted in titles and abstracts. Terms occurred in at least two different articles were selected for ranking by its occurrence frequency. • B. Primary Tumor Cell Preparation. SQCC samples were collected from patients according to protocols approved by the Stanford IRB board. Samples were washed, dissociated, and incubated in DNase and collagenase/dispase. After incubation, cell clusters and red blood cells were removed. The single cells were resuspended and prepared for cell culture and staining. • C. Microarray datasets. The TOGA lung cancer gene expression datasets were downloaded from the TOGA data portal on September 2012. […] Meta-analysis of correlations were performed using R package meta, where fixed and random effects estimates were calculated and inverse variance weighting was used for pooling. […] Quantitative IF imaging signal of human lung tissue samples were measured using the Bioquant image analysis software in the Nikon 8000 microscope and Leica DMI 6000B. • E. Flow Cytometry. […]

ERK1/2 = ERK1/2 phosphorylation, western blot

Cc1ccccc1N1CCN(S(=O)(=O)C[C@]23CC[C@H](C[C@@H]2NC(=O)[C@@H](N)CCS(C)(=O)=O)C3(C)C)CC1 [L3, (S)-2-amino-N-((1S,2S,4R)-7,7-dimethyl-1-((4-o-tolylpiperazin-1-lsulfonyl)methyl)bicyclo[2.2.1]heptan-2-yl)-4-(methylsulfonyl)butanamide]
sphere growth of tumor spheres derived from primary SQCC cells [1]: significantly reduced the sphere growth
tumor sphere numbers ([2]; H226 and H520 cells, after 3 days of treatment, statistically significant at 5 μM and 10 μM): dose-dependent decrease
colony formation of H226 and H520 cells (H226 and H520 cells): reduced the colony formation
cell proliferation of regular H226 and H520 cells [3]: neither L3 nor OXT affected the cell proliferation

CC[C@H](C)[C@@H]1NC(=O)[C@H](Cc2ccc(O)cc2)NC(=O)[C@@H](N)CSSC[C@@H](C(=O)N2CCC[C@H]2C(=O)N[C@@H](CC(C)C)C(=O)NCC(N)=O)NC(=O)[C@H](CC(N)=O)NC(=O)[C@H](CCC(N)=O)NC1=O [OXT, oxytocin]
tumor sphere size vs solvent control ([2]; H226 and H520 tumor spheres treated for three days): significantly larger
tumor sphere growth ([2]; both cell lines (H226, H520), statistically significant at as low as 10 nM): dose dependent increase
phosphorylation of ERK1/2 in regular H226 and H520 cells (ERK1/2; 100 nM for two days, compared to solvent control): unchanged
phosphorylation of ERK1/2 in TICs (ERK1/2; 100 nM for two days, compared to solvent control, tumor spheres of H226 and H520): greatly increased
cell proliferation of regular H226 and H520 cells [3]: neither L3 nor OXT affected the cell proliferation

N#CC(=C(/N)Sc1ccccc1N)/C(C#N)=C(\N)Sc1ccccc1N [U0126]
rescue of the inhibitory effect by increasing dose of OXT ([2]; H226 and H520): could not be rescued
TIC growth ([2]; H226 and H520 spheres): dose dependent inhibition
OXT induced increase of TIC growth ([2]; both H226 and H520 cells, co-treatment with OXT): blocked
OXT induced phosphorylation of ERK1/2 (ERK1/2; CCs and TICs of H226 and H520 cell lines, co-treatment with OXT): inhibited
proliferation in regular cancer cells ([3]; H226 and H520 cells): increased proliferation
